Earlier results, collected in the CATMoS acute toxicity set (Mansouri et al. 2021).
Where “and” joins values, the source holds several entries; their conditions need not be identical. Equal values may be shown once.

Assay: rat acute oral toxicity
Details: in vivo

SMILES: COc1ccc(-c2noc(CC(=O)O)c2-c2ccc(OC)cc2)cc1
- LD50: 887 mg/kg

SMILES: CC(C)(C)NCCCCN
- LD50: 810 mg/kg

SMILES: Cc1ccccc1C(C)c1ccccc1 (configuration not stated)
- LD50: 1750 mg/kg

SMILES: O=C1C(=NNc2ccccc2)C(S(=O)(=O)O)=Cc2cc(S(=O)(=O)O)cc(Nc3nc(Cl)nc(Cl)n3)c21
- LD50: 7460 mg/kg

SMILES: O=C1CCc2ccccc2O1
- LD50: 1460 mg/kg

SMILES: CCNC(=O)Cc1ccccc1
- LD50: 756 mg/kg

SMILES: CC(C)(C)NCC(O)COc1ccccc1C#N (configuration not stated)
- LD50: 639 mg/kg

SMILES: C=CCC1(CCSCCCC)C(=O)N=C(S)NC1=O (configuration not stated)
- LD50: 1450 mg/kg

SMILES: CCON(CC)N=O
- LD50: 1000 mg/kg

SMILES: O=[PH](O)c1ccccc1
- LD50: 1340 mg/kg

SMILES: CC(=O)CNC(C)(C)Cc1ccccc1
- LD50: 225 mg/kg

SMILES: O=S(=O)(O)Oc1ccc(C(c2ccc(OS(=O)(=O)O)cc2)c2ccccn2)cc1
- LD50: 11300 mg/kg

SMILES: O=C(Oc1cccc(O)c1)c1ccccc1
- LD50: 800 mg/kg

SMILES: COc1ccc2c(=O)c(C)c(-c3ccccc3)oc2c1CN(C)C
- LD50: 40 mg/kg and 14 mg/kg

SMILES: O=C(O)C1CCc2cc(C3CCCCC3)ccc21 (configuration not stated)
- LD50: 287 mg/kg and 230 mg/kg

SMILES: O=C(O)c1ccc2c3c(ccc(C(=O)O)c13)C(=O)OC2=O
- LD50: 3510 mg/kg

SMILES: CN1CCC(N(Cc2cccs2)c2ccccc2)CC1
- LD50: 1060 mg/kg

SMILES: CCC(C)c1cnc2nc(N)nc(N)c2c1C (configuration not stated)
- LD50: 100 mg/kg

SMILES: N#C[Se]Cc1ccccc1
- LD50: 98.5 mg/kg

SMILES: Clc1ccc(C(Cn2ccnc2)OCc2c(Cl)cccc2Cl)c(Cl)c1 (configuration not stated)
- LD50: 5600 mg/kg

SMILES: O=C(O)CCc1nc(-c2ccccc2)c(-c2ccccc2)o1
- LD50: 4470 mg/kg

SMILES: CCC(C)c1ccc(O)cc1 (configuration not stated)
- LD50: 2450 mg/kg

SMILES: COc1ccc2c3c1O[C@H]1[C@@H](O)C=C[C@H]4[C@@H](C2)[N@@+](C)([O-])CC[C@@]341
- LD50: 1600 mg/kg

SMILES: CC1C(C)(C)C2=C(c3ncncc3CC2)C1(C)C (configuration not stated)
- LD50: 500 mg/kg

SMILES: CCN(CC)CCCN(c1ccccc1)C1Cc2ccccc2C1
- LD50: 525 mg/kg

SMILES: CCN(CCN(C)C)c1ccccc1
- LD50: 1150 mg/kg

SMILES: Nc1c(Br)cc([N+](=O)[O-])cc1[N+](=O)[O-]
- LD50: 4100 mg/kg

SMILES: CC1(C)CC(N2C(C)(C)CC(N)CC2(C)C)CC(C)(C)N1
- LD50: 2170 mg/kg

SMILES: CCCCOC(OCCCC)C(OCCCC)OCCCC
- LD50: 8900 mg/kg

SMILES: COc1coc(CSP(=O)(OC)OC)cc1=O
- LD50: 23 mg/kg

SMILES: CC(=O)OC(C)CC(C)C (configuration not stated)
- LD50: 6160 mg/kg

SMILES: COP(=S)(OC)SCC(=O)CNC(=O)Oc1cccc(C(C)C)c1
- LD50: 432 mg/kg

SMILES: c1cncc(C2=NCCC2)c1
- LD50: 1880 mg/kg

SMILES: CCCCC(CC)C(O)C(=O)O (configuration not stated)
- LD50: 3400 mg/kg

SMILES: CCC(Br)(CC)C(=O)OCC(Br)(Br)Br
- LD50: 2500 mg/kg

SMILES: CC(C)[C@@]1(NC(=O)[C@@H]2C[C@@H]3c4cccc5[nH]cc(c45)C[C@H]3N(C)C2)O[C@@]2(O)[C@@H]3CCCN3C(=O)[C@H](Cc3ccccc3)N2C1=O
- LD50: 2640 mg/kg

SMILES: CC(=O)Oc1ccc(C2(c3ccc(OC(C)=O)cc3)Oc3ccccc3NC2=O)cc1
- LD50: 8000 mg/kg

SMILES: CC(Oc1c(Cl)cccc1Cl)C1=NCCN1 (configuration not stated)
- LD50: 70 mg/kg

SMILES: Cc1cn([C@H]2C=C[C@@H](CO)O2)c(=O)[nH]c1=O
- LD50: 4000 mg/kg

SMILES: CC(C)(O)Cc1ccccc1
- LD50: 1280 mg/kg

SMILES: Cc1cc(=O)[nH]o1
- LD50: 3110 mg/kg

SMILES: Cc1nn(C)c(=O)c2noc(C)c12
- LD50: 1000 mg/kg

SMILES: O=S(=O)(O)CCS
- LD50: 4440 mg/kg

SMILES: C=C(C)OC(C)=O
- LD50: 3000 mg/kg

SMILES: CC1(C)S[C@@H]2[C@H](NC(=O)Cc3ccccc3)C(=O)N2[C@H]1C(=O)O
- LD50: 8900 mg/kg and 8000 mg/kg and 6920 mg/kg

SMILES: O=C1CCCCCC=CCCCCCCCCO1
- LD50: 339 mg/kg

SMILES: CN(CCCl)c1ccc(C=CC2=[N+](C)c3ccccc3C2(C)C)cc1
- LD50: 2260 mg/kg

SMILES: CCOC(C1=NCCCCN1)c1ccc(Cl)cc1 (configuration not stated)
- LD50: 370 mg/kg

SMILES: CC(=O)C=C1CCC2C13CCC(C)C(C3)C2(C)C (configuration not stated)
- LD50: 5200 mg/kg

SMILES: C/C=C\c1ccc(OCc2ccccc2)c(OC)c1
- LD50: 4900 mg/kg

SMILES: OCCN1CCN(CCC=C2c3ccccc3Sc3ccc(C(F)(F)F)cc32)CC1
- LD50: 791 mg/kg

SMILES: N#CC(F)(F)C(F)(F)C(F)(F)C#N
- LD50: 2600 mg/kg

SMILES: CCOCCN(C(=O)CCl)C(=C(C)C)c1ccccc1
- LD50: 983 mg/kg

SMILES: CCCCCCOC(=O)Oc1ccccc1C(=O)O
- LD50: 3450 mg/kg

SMILES: C=COC(=O)CCC
- LD50: 8530 mg/kg

SMILES: CCCCOCCOC(=O)COc1cc(Cl)c(Cl)cc1Cl
- LD50: 500 mg/kg

SMILES: CCCCN(CCCC)CCCN
- LD50: 820 mg/kg
